The values that follow come from US20230372364A1, “METHOD OF TREATING GABA MEDIATED DISORDERS” (Eliem Therapeutics (UK) Ltd, priority 2020, published 2023).

For one data set, the system named is human subjects. Conditions: cited from earlier work.
In data set [1] the test system is rodent model of depression. Briefly: Forced swim test - Depression. Type of data set: in vivo. The conditions noted are these: all doses listed in the cell.
The conditions of data set [2]: human, cited from earlier work.
The conditions of data set [3]: human, cited from earlier work. The source holds these as a separate data set.
The mark [4] stands for this setting: 30 mg, day 7 MAD (MTD), morning dosing.

Like-named read-outs stand apart in the source and are kept apart here.

Consider `C[C@@]1(O)CC[C@H]2[C@H](CC[C@@H]3[C@@H]2CC[C@]2(C)[C@@H](C(=O)Cn4cc(C#N)cn4)CC[C@@H]32)C1` [Sage-217, zuranolone], for which, in the data set with human subjects (20 mg, n-188), the “Any adverse event, (%)” value is given as “(50.0) %”; the “Diarrhea, (%)” value is “(5.9) %”; the “Dizziness, (%)” value is on record as “(7.4) %”; the “Fatigue, (%)” value is recorded as “(1.6) %”. In the data set on human subjects (20 mg, n-188), the “Headache, (%)” value is on record as “(11.2) %”; the “Nausea, (%)” value is on record as “(5.3) %”; the “Sedation, (%)” value is “(5.9) %”; the “Somnolence, (%)” value is “(5.9) %”. In the data set on human subjects (30 mg, n-192), the “Any adverse event, (%)” value is given as “(54.2) %”; the “Diarrhea, (%)” value is on record as “(6.3) %”; the “Dizziness, (%)” value is listed as “(5.7) %”; the “Fatigue, (%)” value was “(6.8) %”. In the data set with human subjects (30 mg, n-192), the “Headache, (%)” value is “(6.3) %”; the “Nausea, (%)” value was “(3.6) %”; the “Sedation, (%)” value is listed as “(4.7) %”; the “Somnolence, (%)” value is “(6.8) %”. Moreover, in data set [1], the “Doses in Forced swim test - Depression, * = significantly efficacious dose” value was 1 - 3* mg/kg. For the same compound, in data set [2] (55 mg SAD MTD), the Tmax is reported as 1.24 h. Moreover, the “SAD MTD” value in data set [2] (single ascending dose) is reported as “SAGE-217 55 mg SAD MTD”. The “ratio of Cmax/trough on day 7” value in data set [3] (30 mg daily in the evening in a fed state) is given as 5.88. In data set [3] (setting [4]), the AUC0-inf was 833.2 ng·h/mL, the Cmin was 12.46 ng/mL and the “Ratio (Cmax/Cmin)” value was 9.24. In addition, the “MAD MTD” value in data set [3] (multiple ascending dose) was “SAGE-217 30 mg”.

As usually defined, the Tmax is the time from dosing to the highest level.
